Measurements as given in publication PMC6582486, “Stapled EGFR peptide reduces inflammatory breast cancer and inhibits additional HER-driven models of cancer” (Journal of Translational Medicine, 2019).
Where a SMILES comes first, the peptide text is derived from it. Bridges are numbered along the chain shown (N, C = ends). [ ]: non-standard residue; d: D form. R8 = C=CCCCCCC[C@@](C)(N)C(=O)O; S5 = C=CCCC[C@](C)(N)C(=O)O

Tests used:
[1] = system: luciferized murine glioma (Ink4a/ARF-/-; hEGFRvIII); assay: Orthotopic EGFRvIII glioblastoma mouse model, survival; type: in vivo, nude mice; details: SAH5-EJ1 10 µg/g IV (N = 4), control peptide N = 6
Method: Patient samples used were provided by the Biobank Core Facility at Barrow Neurological Institute. Samples were de-identified and conformed to the Biobank IRB protocol. Patient-derived cell lines (GB16 and GB71) were established from resected primary GBM tumor tissue. Tissue was processed using the Gentle MACS Dissociator and Tumor Tissue Dissociation kit (Miltenyi Biotec Inc.; Auburn, CA). Animal husbandry was performed according to the guidelines of St. Joseph Hospital and Medical Center and Barrow Neurological Institute under the Institutional Animal Care and Use Committee-approved protocol. Five- to six-week-old CrTac: NCr-Foxn1^nu nude mice (Taconic Biosciences; Hudson, NY) were used for in vivo orthotropic transplant of luciferized murine glioma model (Ink4a/ARF^−/−; hEGFRvIII). For orthotopic transplants, 2 μL of dissociated cells at a density of 100,000 cells/μL were injected in the right striatum, as described previously. In vivo tumor growth was measured by IVIS xenogen bioluminescence imaging (BLI) system after IP injection of 150 mg/kg Luciferin (Gold Biotechnology; St, Louis, MO) every week after 1-month post-surgery. […]
Fig. 2 SAH5-EJ1 enters cells, colocalizes with mitochondria, and survives in vivo, resulting in glioblastoma-derived cell death and glioma mouse model survival. […] H Luminescence distribution throughout organs. […]

[2] = system: SUM149-generated tumors; assay: Inflammatory breast cancer SUM149 mouse model; type: in vivo, SCID mice
Method: 26 female SCID mice were injected with 0.1 mL of a cell solution containing 3.84 × 10^6 SUM149 cells resuspended in Trevigen and sterile saline at site L4. Mice were incubated for 35 days to allow tumor growth prior to injection of SAH5-EJ1, and randomized into 3 groups, N = 8 mice/group. Injections of 5 µg/g or 0.5 µg/g in 0.1 mL volumes of SAH5-EJ1 were administered via tail vein every 3 days for 31 days until the administration route changed to intraperitoneal injections through the conclusion of the study. Control injections of equal volumes of sterile water were also performed. All animals were maintained as outlined by University of Arizona Institutional Animal Care and Use Committee (IACUC) by the Experimental Mouse Shared Resource (EMSR).
Fig. 4 SAH5-EJ1 effectively treats models of basal and inflammatory breast cancers while increasing survival. a Changes in tumor burden in breast cancer PDX mouse model TM01278 with various concentrations of intravenous SAH5-EJ1. Control represents water as a vehicle control. *p < 0.05 (Control vs 1 µg/g); **p < 0.01 (Control vs 1 µg/g and vs 10 µg/g). N = 6 for each condition. b Kaplan–Meier curve of breast PDX mouse model treated with control (blue) or either 1 or 10 µg/g SAH5-EJ1 (green and red, respectively) (red asterisks indicate time point at which mice could no longer receive injections due to site toxicity). Data shown represent mean. N = 6 for all groups. c Cell viability assay performed in SUM149 cells over 3 days comparing treatment with Sapitinib (blue) to SAH5-EJ1 (red) and SAH5-CP (grey). Solid lines represent 24 h; dashed lines represent 72 h. Data shown represent mean ± percent difference of assays performed in triplicate. d Kaplan–Meier curve of inflammatory breast cancer SUM149-injected mouse model treated with injected control (water) (blue) or either 0.5 or 5 µg/g SAH5-EJ1 (green and red, respectively). Data shown represent mean. N = 8 for all groups. e Changes in tumor burden in SUM149-generated tumors with various doses of SAH5-EJ1. Control represents water (blue). […]

## CC[C@H](C)[C@H](NC(=O)[C@H](Cc1c[nH]cn1)NC(=O)[C@H](CCCNC(=N)N)NC(=O)[C@H](CCCNC(=N)N)NC(=O)[C@H](CCCNC(=N)N)NC(=O)[C@H](CCSC)NC(=O)[C@H](Cc1ccccc1)NC(=O)[C@H](C)NC(=O)[C@H](CCCNC(=N)N)NC(=O)[C@H](C)NC(=O)[C@H](CCC(N)=O)NC(=O)[C@H](CCCNC(=N)N)NC(=O)[C@H](C)NC(=O)[C@H](C)NC(=O)[C@H](C)NC(=O)[C@H](CCCNC(=N)N)NC(=O)[C@H](C)NC(=O)[C@@H](N)Cc1ccc(O)cc1)C(=O)N[C@H](C(=O)N[C@@H](CCCNC(=N)N)C(=O)N[C@@H](CCCCN)C(=O)N[C@@H](CCCNC(=N)N)C(=O)N[C@]1(C)CCCCCCC=CCCC[C@@](C)(C(=O)N[C@@H](CCCNC(=N)N)C(=O)N[C@@H](CCC(=O)O)C(N)=O)NC(=O)[C@H](CCC(N)=O)NC(=O)[C@H](CC(C)C)NC(=O)[C@H](CC(C)C)NC(=O)[C@H](CCCNC(=N)N)NC(=O)[C@H](CCCNC(=N)N)NC(=O)[C@H](CC(C)C)NC1=O)C(C)C [SAH5-EJ1] (H-YARAAARQARAFMRRRHIVRKR[R8]LRRLLQ[S5]RE-NH2; staple 23-30)
[1]
  mice alive after 72 days: 75%
[2]; 0.5 or 5 µg/g every 3 days, IV then IP
  time of treatment until all animals showed no residual tumor burden: ≤ 55 days
[2]; 0.5 or 5 µg/g groups together
  treated mice displaying tumor regrowth: 9/16
[2]; 0.5 or 5 µg/g, treatment up to 203 days
  treated mice remaining at the end of the study: more than 40%
